Measurements from patent US8258122B2, “3-([1,2,4]triazolo[4,3-a]pyridin-7-yl)benzamide derivatives” (Almirall, S.A., priority 2007, dated 2012).

Molecular target: T1, human p38alfa (SAPKa) enzyme (Homo sapiens, UniProt Q16539)
T1 construct: purchased University of Dundee
Experiment: p38 enzymatic inhibition assay (FRET, biotinylated ATF2 substrate)
Type: biochemical
Conditions: 1 h pre-incubation; ATF2 0.62 μM, ATP 60 μM; 25° C.; read-out: p38α IC50
Procedure: Enzymatic activity assay was performed in 96-well microtiter plates (Corning, catalog number # 3686) using a total volume of 50 μl of an assay buffer composed of 50 mM HEPES pH 7.5, 10 mM MgCl2, 1.75 mM Na3VO4.
Various concentrations of the test compound or vehicle controls were pre-incubated for one hour with 0.055 μg/ml of the human p38alfa (SAPKa) enzyme (obtained from University of Dundee). The reaction started by addition of biotinylated ATF2 substrate and ATP in concentrations around their Km values (final concentration 0.62 μM and 60 μM respectively) and took place for one hour at 25° C. Addition of the detection reagents, streptavidin—XL665 and anti-phosphoresidue antibody coupled to Europium cryptate, caused the juxtaposition of the cryptate and the XL665 fluorophore, resulting in fluorescence energy transfer (FRET). The FRET intensity depends on the amount of bounded cryptate antibody, which is proportional to the extent of substrate phosphorylation. FRET intensity was measured using Victor 2V spectrofluorometer.
Data were analyzed by non-linear regression (Hill equation) to generate a dose-response curve. The calculated IC50 value is the concentration of the test compound that caused a 50% decrease in the maximal FRET intensity.

T1 sequence (Q16539 whole entry): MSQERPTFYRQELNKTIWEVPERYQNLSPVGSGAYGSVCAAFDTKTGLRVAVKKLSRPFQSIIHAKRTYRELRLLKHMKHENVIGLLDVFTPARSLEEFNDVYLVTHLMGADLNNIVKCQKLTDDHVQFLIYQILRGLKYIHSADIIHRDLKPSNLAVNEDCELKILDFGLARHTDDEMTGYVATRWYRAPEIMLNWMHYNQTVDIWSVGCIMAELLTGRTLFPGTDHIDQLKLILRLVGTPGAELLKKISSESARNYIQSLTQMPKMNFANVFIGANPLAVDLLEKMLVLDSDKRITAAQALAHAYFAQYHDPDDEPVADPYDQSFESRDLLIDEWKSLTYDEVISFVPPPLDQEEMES

Row | SMILES | IC50 [nM]
1 | Cc1ccc(C(=O)NC2CC2)cc1-c1ccn2c(C(C)(C)C)nnc2c1 [Example 1, 3-(3-tert-Butyl-[1,2,4]triazolo[4,3-a]pyridin-7-yl)-N-cyclopropyl-4-methylbenzamide] | 16
2 | Cc1ccc(C(=O)NC2CC2)cc1-c1ccn2c(-c3ccccc3Cl)nnc2c1 [Example 6, 3-(3-(2-Chlorophenyl)-[1,2,4]triazolo[4,3-a]pyridin-7-yl)-N-cyclopropyl-4-methylbenzamide] | 6
3 | Cc1ccc(C(=O)NC2CC2)cc1-c1ccn2c(NCC3CC3)nnc2c1 [Example 7, N-Cyclopropyl-3-(3-(cyclopropylmethylamino)-[1,2,4]triazolo[4,3-a]pyridin-7-yl)-4-methylbenzamide] | 75
4 | Cc1c(F)cc(C(=O)NC2CC2)cc1-c1ccn2c(C(C)(C)C)nnc2c1 [Example 9, 3-(3-tert-Butyl-[1,2,4]triazolo[4,3-a]pyridin-7-yl)-N-cyclopropyl-5-fluoro-4-methylbenzamide] | 2
5 | Cc1ccc(C(=O)NC2CC2)cc1-c1ccn2c(N3CCCC3)nnc2c1 [Example 16, N-Cyclopropyl-4-methyl-3-(3-pyrrolidin-1-yl-[1,2,4]triazolo[4,3-a]pyridin-7-yl)-benzamide] | 83
6 | Cc1ccc(C(=O)NC2CC2)cc1-c1cc2nnc(C(C)(C)C)n2cc1F [Example 18, 3-(3-tert-Butyl-6-fluoro-[1,2,4]triazolo[4,3-a]pyridin-7-yl)-N-cyclopropyl-4-methylbenzamide] | 3.2
7 | Cc1c(F)cc(C(=O)NC2CC2)cc1-c1cc2nnc(C(C)(C)C)n2cc1F [Example 19, 3-(3-tert-Butyl-6-fluoro-[1,2,4]triazolo[4,3-a]pyridin-7-yl)-N-cyclopropyl-5-fluoro-4-methylbenzamide] | 2
8 | Cc1c(F)cc(C(=O)NC2CC2)cc1-c1c(F)cn2c(C3CC3)nnc2c1F [Example 23, N-cyclopropyl-3-(3-cyclopropyl-6,8-difluoro[1,2,4]triazolo[4,3-a]pyridin-7-yl)-5-fluoro-4-methylbenzamide] | 10
9 | Cc1c(F)cc(C(=O)NC2CC2)cc1-c1ccn2c(C(C)C)nnc2c1 [Example 28, N-cyclopropyl-3-fluoro-5-(3-isopropyl[1,2,4]triazolo[4,3-a]pyridin-7-yl)-4-methylbenzamide] | 3
10 | Cc1ccc(C(=O)NC2CC2)cc1-c1ccn2c(-c3ccncc3Cl)nnc2c1 [Example 30, 3-[3-(3-Chloropyridin-4-yl)[1,2,4]triazolo[4,3-a]pyridin-7-yl]-N-cyclopropyl-4-methylbenzamide] | 38
11 | Cc1c(F)cc(C(=O)NC2CC2)cc1-c1ccn2c(-c3ccncc3Cl)nnc2c1 [Example 31, 3-[3-(3-Chloropyridin-4-yl)[1,2,4]triazolo[4,3-a]pyridin-7-yl]-N-cyclopropyl-5-fluoro-4-methylbenzamide] | 0.3
12 | Cc1c(F)cc(C(=O)NC2CC2)cc1-c1ccn2c(C3CCOCC3)nnc2c1 [Example 33, N-Cyclopropyl-3-fluoro-4-methyl-5-[3-(tetrahydro-2H-pyran-4-yl)[1,2,4]triazolo[4,3-a]pyridin-7-yl]benzamide] | 30
13 | CO[C@@H](C)c1nnc2cc(-c3cc(C(=O)NC4CC4)ccc3C)ccn12 [Example 38, N-Cyclopropyl-3-{3-[(1S)-1-methoxyethyl][1,2,4]triazolo[4,3-a]pyridin-7-yl}-4-methylbenzamide] | 38
14 | Cc1c(F)cc(C(=O)NC2CC2)cc1-c1ccn2c(C(=O)N3CCCC3)nnc2c1 [Example 42, N-Cyclopropyl-3-fluoro-4-methyl-5-[3-(pyrrolidin-1-ylcarbonyl)[1,2,4]triazolo[4,3-a]pyridin-7-yl]benzamide] | 46
15 | Cc1c(F)cc(C(=O)NC2CC2)cc1-c1ccn2c(C(C)(C)O)nnc2c1 [Example 45, N-Cyclopropyl-3-fluoro-5-[3-(1-hydroxy-1-methylethyl)[1,2,4]triazolo[4,3-a]pyridin-7-yl]-4-methylbenzamide] | 3.1
16 | Cc1c(F)cc(C(=O)NC2CC2)cc1-c1c(F)cn2c(C(C)(C)N)nnc2c1F [Example 46, 3-[3-(1-Amino-1-methylethyl)-6,8-difluoro[1,2,4]triazolo[4,3-a]pyridin-7-yl]-N-cyclopropyl-5-fluoro-4-methylbenzamide] | 11.9
17 | Cc1c(F)cc(C(=O)NC2CC2)cc1-c1c(F)cn2c(C(C)(C)N(C)C)nnc2c1F [Example 47, N-Cyclopropyl-3-{3-[1-(dimethylamino)-1-methylethyl]-6,8-difluoro[1,2,4]triazolo-[4,3-a]pyridin-7-yl}-5-fluoro-4-methylbenzamide] | 15.4
